Experiments:
[1] = system: NO production in LPS-induced RAW 264.7 macrophages; assay: Inhibition of nitric oxide (NO) production in LPS-induced macrophages (Griess); type: cell-based, mouse; details: for IC50: LPS (1 μg/mL) 24 h, RAW 264.7 mouse macrophages, Griess, mean ± SD, triplicate; for inhibitory activities against NO production (in words): LPS-induced RAW 264.7 macrophages
Experimental: (§1) Compounds 1–6 were evaluated for the inhibitory activity of nitric oxide (NO) production in lipopolysaccharide (LPS)-induced RAW 246.7 mouse macrophages. The cells (180 μL) with a density of 5 × 10^5 cells/mL of media on a 96-well plate were put under 37 °C at a 5% CO2 condition. After a 24 h preincubation, the seeded cells were treated with gradient dilutions of 1-6 with a maximum concentration of 100 μM, followed by stimulation with LPS (1 μg/mL) for 24 h. Then 50 μL cell culture supernatant solution was moved to a new plate that contained NO detection Griess A (50 μL) and Griess B (50 μL). Finally, the absorbance was measured at 540 nm. Aminoguanidine was used as a positive control and all data were obtained in triplicate. The viability of RAW264.7 cells was evaluated according to the SRB method simultaneously to exclude the interference of the cytotoxicity of 1–6. The RAW264.7 cells were purchased from the Cell Bank of the Chinese Academy of Sciences.

[2] = system: RAW264.7 cells; assay: Cytotoxicity / viability of macrophages (SRB method); type: cell-based, mouse; details: RAW264.7 macrophages
Experimental: as §1

[3] = Cytotoxicity / viability of macrophages (SRB method); type: cell-based, mouse; details: mouse, RAW264.7 macrophage cells, RAW264.7 macrophages
Experimental: as §1

In the case of `N=C(N)NN` [Aminoguanidine, reference compound], the IC50 [1] is reported as 24.8 ± 0.8 µM and the IC50 [2] is reported as greater than 200 µM.
In the case of `CCC1(O)C(=O)C2=C(CC1O)OC1=C(C(=O)C(O)(CC)C(O)C1)C2c1ccc(O)cc1` (stereo not shown) [Compound 1, Trieffusol A], the melting point is reported as 149 to 150 °C, the IC50 ([1]; Mus musculus, RAW264.7, 24 h) is reported as greater than 200 µM and the IC50 at 24 h [3] is reported as greater than 200 µM.
Work on `CCC1(O)C(=O)C2=C(CC1O)OC1=C(C(=O)C(O)(CC)C(O)C1)C2c1ccc(O)cc1` (stereo not shown) [Compound 2, Trieffusol B] yielded an IC50 [1] of 108 ± 3 µM and an IC50 [2] greater than 200 µM.
In the case of `CCC1(O)C(=O)C=C(OCCc2ccc(O)cc2)CC1O` (stereo not shown) [Compound 3, Trieffusol C], the IC50 [1] is reported as 51.9 ± 1.4 µM, the “inhibitory activities against NO production (in words)” value [1] is reported as “moderate inhibitory activities” and the IC50 ([1]; Mus musculus, RAW264.7, 24 h) is reported as 51.9 to 55.9 µM. It also gave an IC50 at 24 h [3] greater than 200 µM.
In the case of `CCc1c(O)cc2c(c1O)C(=O)CC(C)O2` (stereo not shown) [Compound 4, Trieffusol D], the “inhibitory activities against NO production (in words)” value [1] is reported as “moderate inhibitory activities”, the IC50 ([1]; Mus musculus, RAW264.7, 24 h) is reported as 51.9 to 55.9 µM and the IC50 at 24 h [3] is reported as greater than 200 µM.
Work on `CCc1c(O)cc2c(c1O)C(=O)C[C@@H](C)O2` [Compound 4a, (+)-Trieffusol D] yielded an IC50 ([1]; Mus musculus, RAW264.7, 24 h) of 54.3 ± 2.2 µM and an IC50 at 24 h [3] greater than 200 µM.
Work on `CCc1c(O)cc2c(c1O)C(=O)C[C@H](C)O2` [Compound 4b, (−)-Trieffusol D] yielded an IC50 ([1]; Mus musculus, RAW264.7, 24 h) of 55.9 ± 1.6 µM and an IC50 at 24 h [3] greater than 200 µM.
In the case of `C/C=C/C(=O)c1c(OC)cc2c(c1O)CCO2` [Compound 5, Trieffusol E], the IC50 ([1]; Mus musculus, RAW264.7, 24 h) is reported as 65.5 ± 1.3 µM and the IC50 at 24 h [3] is reported as greater than 200 µM.
In the case of `CCCc1cc2c(c(O)c1CO)COC2=O` [Compound 6, Trieffusol F], the IC50 ([1]; Mus musculus, RAW264.7, 24 h) is reported as 111 ± 4.6 µM and the IC50 at 24 h [3] is reported as greater than 200 µM.

From PMC7143758, “Highly Substituted Phenol Derivatives with Nitric Oxide Inhibitory Activities from the Deep-Sea-Derived Fungus Trichobotrys effuse FS524” (Marine Drugs, 2020)
